Experimental data published in ChEMBL document CHEMBL1201862, “PubChem BioAssay data set” (2004).
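Grown in 96-well plates, cells were treated for 48 hours with each compound at five concentrations. Insufficient inhibition: endpoint recorded as highest concentration tested. The concentration for 50% growth inhibition is given as GI50.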 Activity calls are given as the source filed them. No stated cut-off is given here; in the data, active = GI50 up to about 1.1 µM and inactive = higher.

What was measured:
Assay in all cases: DTP human tumour cell line panel, 48 h
[1] = tested on: 786-0
[2] = tested on: A498
[3] = tested on: A549
[4] = tested on: ACHN
[5] = tested on: BT-549
[6] = tested on: CAKI-1
[7] = tested on: COLO 205
[8] = tested on: DU-145
[9] = tested on: EKVX
[10] = tested on: HCC 2998
[11] = tested on: HCT-116
[12] = tested on: HCT-15
[13] = tested on: HL-60
[14] = tested on: HOP-62
[15] = tested on: HOP-92
[16] = tested on: HT-29
[17] = tested on: Hs-578T
[18] = tested on: IGROV-1
[19] = tested on: KM12
[20] = tested on: LOX IMVI
[21] = tested on: M14
[22] = tested on: MCF7
[23] = tested on: MDA-MB-231
[24] = tested on: MDA-MB-435
[25] = tested on: MDA-N
[26] = tested on: MOLT-4
[27] = tested on: Malme-3M
[28] = tested on: NCI-H226
[29] = tested on: NCI-H23
[30] = tested on: NCI-H460
[31] = tested on: NCI-H522
[32] = tested on: NCI/ADR-RES
[33] = tested on: OVCAR-3
[34] = tested on: OVCAR-4
[35] = tested on: OVCAR-5
[36] = tested on: OVCAR-8
[37] = tested on: PC-3
[38] = tested on: RPMI-8226
[39] = tested on: RXF 393
[40] = tested on: SF-268
[41] = tested on: SF-295
[42] = tested on: SF-539
[43] = tested on: SK-MEL-28
[44] = tested on: SK-MEL-2
[45] = tested on: SK-MEL-5
[46] = tested on: SK-OV-3
[47] = tested on: SN12C
[48] = tested on: SNB-19
[49] = tested on: SNB-75
[50] = tested on: SR
[51] = tested on: SW-620
[52] = tested on: T47D
[53] = tested on: TK-10
[54] = tested on: U-251
[55] = tested on: UACC-257
[56] = tested on: UACC-62
[57] = tested on: UO-31

Question: Which GI50 [1] does the source give for `CN(C)C(=S)Oc1ccc2ccc(=O)oc2c1` here?
Answer: The GI50 was > 100 µM (inactive).

Question: What about the GI50 [2] of the same compound?
Answer: Its GI50 is > 100 µM (inactive).

Question: And the GI50 [3]?
Answer: Its GI50 is > 100 µM (inactive).

Question: And the GI50 [4]?
Answer: Its GI50 is > 100 µM (inactive).

Question: And the GI50 [5]?
Answer: The GI50 was > 100 µM (inactive).

Question: What about the GI50 [6] of the same compound?
Answer: Its GI50 is > 100 µM (inactive).

Question: And the GI50 [7]?
Answer: The GI50 was > 100 µM (inactive).

Question: What about the GI50 [8] of the same compound?
Answer: The GI50 was > 100 µM (inactive).

Question: What about the GI50 [9] of the same compound?
Answer: The GI50 was > 100 µM (inactive).

Question: What about the GI50 [10] of the same compound?
Answer: Its GI50 is > 100 µM (inactive).

Question: And the GI50 [11]?
Answer: Its GI50 is > 100 µM (inactive).

Question: And the GI50 [12]?
Answer: Its GI50 is > 100 µM.

Question: And the GI50 [13]?
Answer: The GI50 was > 100 µM (inactive).

Question: What about the GI50 [14] of the same compound?
Answer: The GI50 was > 100 µM (inactive).

Question: And the GI50 [15]?
Answer: Its GI50 is > 100 µM (inactive).

Question: And the GI50 [16]?
Answer: The GI50 was > 100 µM (inactive).

Question: What about the GI50 [17] of the same compound?
Answer: Its GI50 is > 100 µM (inactive).

Question: And the GI50 [18]?
Answer: Its GI50 is > 100 µM (inactive).

Question: What about the GI50 [19] of the same compound?
Answer: The GI50 was > 100 µM (inactive).

Question: And the GI50 [20]?
Answer: Its GI50 is > 100 µM (inactive).

Question: And the GI50 [21]?
Answer: Its GI50 is > 100 µM (inactive).

Question: And the GI50 [22]?
Answer: The GI50 was > 100 µM (inactive).

Question: And the GI50 [23]?
Answer: The GI50 was > 100 µM (inactive).

Question: And the GI50 [24]?
Answer: The GI50 was > 100 µM (inactive).

Question: What about the GI50 [25] of the same compound?
Answer: Its GI50 is > 100 µM (inactive).

Question: What about the GI50 [26] of the same compound?
Answer: The GI50 was > 100 µM (inactive).

Question: And the GI50 [27]?
Answer: Its GI50 is > 100 µM (inactive).

Question: And the GI50 [28]?
Answer: Its GI50 is > 100 µM (inactive).

Question: What about the GI50 [29] of the same compound?
Answer: The GI50 was > 100 µM (inactive).

Question: And the GI50 [30]?
Answer: The GI50 was > 100 µM (inactive).

Question: What about the GI50 [31] of the same compound?
Answer: The GI50 was > 100 µM (inactive).

Question: What about the GI50 [32] of the same compound?
Answer: Its GI50 is > 100 µM (inactive).

Question: And the GI50 [33]?
Answer: Its GI50 is > 100 µM (inactive).

Question: What about the GI50 [34] of the same compound?
Answer: The GI50 was > 100 µM (inactive).

Question: And the GI50 [35]?
Answer: Its GI50 is > 100 µM (inactive).

Question: What about the GI50 [36] of the same compound?
Answer: The GI50 was > 100 µM (inactive).

Question: And the GI50 [37]?
Answer: Its GI50 is > 100 µM (inactive).

Question: And the GI50 [38]?
Answer: The GI50 was > 100 µM (inactive).

Question: And the GI50 [39]?
Answer: The GI50 was > 100 µM (inactive).

Question: What about the GI50 [40] of the same compound?
Answer: The GI50 was > 100 µM (inactive).

Question: What about the GI50 [41] of the same compound?
Answer: The GI50 was > 100 µM (inactive).

Question: What about the GI50 [42] of the same compound?
Answer: Its GI50 is > 100 µM (inactive).

Question: And the GI50 [43]?
Answer: Its GI50 is > 100 µM (inactive).

Question: What about the GI50 [44] of the same compound?
Answer: Its GI50 is > 100 µM (inactive).

Question: What about the GI50 [45] of the same compound?
Answer: Its GI50 is > 100 µM (inactive).

Question: And the GI50 [46]?
Answer: The GI50 was > 100 µM (inactive).

Question: And the GI50 [47]?
Answer: Its GI50 is > 100 µM (inactive).

Question: What about the GI50 [48] of the same compound?
Answer: The GI50 was > 100 µM (inactive).

Question: And the GI50 [49]?
Answer: The GI50 was > 100 µM (inactive).

Question: And the GI50 [50]?
Answer: The GI50 was > 100 µM (inactive).

Question: And the GI50 [51]?
Answer: Its GI50 is > 100 µM (inactive).

Question: What about the GI50 [52] of the same compound?
Answer: Its GI50 is > 100 µM (inactive).

Question: And the GI50 [53]?
Answer: The GI50 was > 100 µM (inactive).

Question: What about the GI50 [54] of the same compound?
Answer: Its GI50 is > 100 µM (inactive).

Question: And the GI50 [55]?
Answer: Its GI50 is > 100 µM (inactive).

Question: And the GI50 [56]?
Answer: The GI50 was > 100 µM (inactive).

Question: And the GI50 [57]?
Answer: Its GI50 is > 100 µM (inactive).
